We go through 21 compounds from patent US7067518B2, “Pyridinyl-methyl-ethyl cyclohexanecarboxamides as serotonergic agents” (Wyeth, priority 2002, dated 2006).

SMILES strings stand for the structures. Counter-ions that a name gives are not always drawn.

Series [1] addresses T1, human 5-HT1A receptor (Homo sapiens, UniProt P08908).
T1 construct: expressed in transfected cells; host or cells: CHO cells (stably transfected)
T1 sequence (P08908 1-422): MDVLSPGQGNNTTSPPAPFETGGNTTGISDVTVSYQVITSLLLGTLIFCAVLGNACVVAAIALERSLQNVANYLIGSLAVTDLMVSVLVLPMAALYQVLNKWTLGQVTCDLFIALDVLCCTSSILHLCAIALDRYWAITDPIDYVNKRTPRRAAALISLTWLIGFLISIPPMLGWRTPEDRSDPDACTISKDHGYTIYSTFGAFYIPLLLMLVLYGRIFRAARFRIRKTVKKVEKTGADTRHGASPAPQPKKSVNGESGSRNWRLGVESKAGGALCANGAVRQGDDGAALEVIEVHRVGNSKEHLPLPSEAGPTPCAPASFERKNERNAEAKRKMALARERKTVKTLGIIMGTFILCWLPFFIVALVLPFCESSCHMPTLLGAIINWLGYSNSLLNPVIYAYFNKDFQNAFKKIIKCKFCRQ
In words: Agonist activity: reversal of forskolin stimulation of cAMP. The conditions noted are these: reversal of forskolin-stimulated cAMP; CHO cells stably transfected with the human 5-HT1A receptor; RIA. The class given is cell-based. Here is the method: EC50 values are determined for the active test compounds. Stably transfected CHO cells were grown in DMEM containing 10% heat inactivated FBS and non-essential amino acids. The cells are plated at a density of […] per well in a 24 well plate and incubated for 2 days in a CO2 incubator. On the second day, the media is replaced with 0.5 mL treatment buffer (DMEM+25 mM HEPES, 5 mM theophylline, 10 mM pargyline) and incubated for 10 minutes at 37° C. Wells are treated with forskolin ([…]) followed immediately by the test compound ([…] for initial screen) and incubated for an additional 10 minutes at 37° C. The reaction is terminated by removal of the media and addition of 0.5 mL ice cold assay buffer (supplied in the RIA kit). Plates are stored at −20° C. prior to assessment of cAMP formation by RIA.

The target in series [2] is T1, human 5-HT1A receptor. The series is described as follows: 5-HT1A affinity: displacement of [3H] 8-OHDPAT. The class given is binding. The conditions noted are these: CHO cells stably transfected with the human 5-HT1A receptor. An excerpt:
Affinity for the serotonin 5-HT1A receptor was established by assaying the test compound's ability to displace [^3H] 8-OHDPAT from its binding site on the receptor complex in CHO cells stably transfected with the human 5-HT1A receptor following the procedure described by J. Dunlop, Y. Zhang, D. Smith and L. Schechter (Eur. J. Pharmacol., submitted; variation of a procedure described by J. Zgombick et al., Naunyn-Schmiedeberg's Arch. Pharmacol., 354, 226–236 (1996)).

For series [3], the target named is T1, human 5-HT1A receptor. In words: Antagonist activity: forskolin-stimulated cAMP turnover. The series is classed as cell-based. The conditions noted are these: CHO cells stably transfected with the human 5-HT1A receptor, compounds with no agonist activity (Emax=0%). The text has this:
Compounds shown to have no agonist activity (Emax=0%) are further analyzed to determine antagonist activity, as measured by the test compound's ability to inhibit forskolin-stimulated cAMP turnover in CHO cells stably transfected with the human 5-HT1A receptor using a procedure described by J. Dunlop, Y. Zhang, D. Smith and L. Schechter [Eur. J. Pharmacol., submitted; variation of a procedure described by J. Zgombick et al., Naunyn-Schmiedeberg's Arch. Pharmacol., 354, 226–236 (1996)].

For the compound `COc1ccccc1N1CCN(C[C@@H](Cc2cccnc2)NC(=O)C2(C)CCCCC2)CC1` (as salt: fumarate) [Example 5, (R)-1-Methyl-cyclohexanecarboxylic acid {2-[4-(2-methoxy-phenyl)-piperazin-1-yl]-1-pyridin-3-ylmethyl-ethyl}-amide], the melting point lay within 150 to 152 °C.
For the compound `COc1ccccc1N1CCN(C[C@@H](Cc2ccncc2)NC(=O)C2(C)CCCCC2)CC1` (as salt: fumarate) [Example 10, (R)-1-Methyl-cyclohexanecarboxylic acid {2-[4-(2-methoxy-phenyl)-piperazin-1-yl]-1-pyridin-4-ylmethyl-ethyl}-amide], the melting point was determined as 145 °C.
In turn, `COc1ccccc1N1CCN(C[C@@H](Cc2ccccn2)NC(=O)C2CCCCC2)CC1` (as salt: fumarate) [Example 14, (R)-Cyclohexanecarboxylic acid {2-[4-(2-methoxy-phenyl)-piperazin-1-yl]-1-pyridin-2-ylmethyl-ethyl}-amide] had a melting point of 136 to 141 °C.
For `COc1ccccc1N1CCN(C[C@@H](Cc2ccccn2)NC(=O)C2(C)CCCCC2)CC1` (as salt: fumarate) [Example 15, (R)-1-Methyl-cyclohexanecarboxylic acid {2-[4-(2-methoxy-phenyl)-piperazin-1-yl]-1-pyridin-2-ylmethyl-ethyl}-amide], the melting point lay within 135 to 139 °C.
The compound `COc1ccccc1N1CCN(C[C@@H](Cc2ccccn2)N(C)C(=O)C2(C)CCCCC2)CC1` (as salt: fumarate) [Example 18, 1-Methyl-cyclohexanecarboxylic acid {(1R)-2-[4-(2-methoxy-phenyl)-piperazin-1-yl]-1-pyridin-2-ylmethyl-ethyl}-methyl-amide] yielded a melting point of 145 to 146 °C.
In turn, `CC1(C(=O)N[C@H](Cc2cccnc2)CN2CCN(c3cccc4c3OCCO4)CC2)CCCCC1` (as salt: hydrochloride) [Example 22, 1-Methyl-cyclohexanecarboxylic acid {(1R)-2-[4-(2,3-dihydro-benzo[1,4]dioxin-5-yl)-piperazin-1-yl]-1-pyridin-3-ylmethyl-ethyl}-amide] had a melting point of 188 to 190 °C.
Same read-out and setting: with `CC1(C(=O)N[C@H](Cc2ccncc2)CN2CCN(c3cccc4c3OCCO4)CC2)CCCCC1` (as salt: hydrochloride) [Example 23, 1-Methyl-cyclohexanecarboxylic acid {(1R)-2-[4-(2,3-dihydro-benzo[1,4]dioxin-5-yl)-piperazin-1-yl]-1-pyridin-4-ylmethyl-ethyl}-amide] the figure was 188 to 190 °C; with `CN(C(=O)C1CCCCC1)[C@H](Cc1cccnc1)CN1CCN(c2cccc3c2OCCO3)CC1` (as salt: hydrochloride) [Example 24, Cyclohexanecarboxylic acid {(1R)-2-[4-(2,3-dihydro-benzo[1,4]dioxin-5-yl)-piperazin-1-yl]-1-pyridin-3-ylmethyl-ethyl}-methyl-amide], 167 to 170 °C.
Still for that read-out and setting: the same measure for `CN(C(=O)C1CCCCC1)[C@H](Cc1ccncc1)CN1CCN(c2cccc3c2OCCO3)CC1` (as salt: hydrochloride) [Example 25, Cyclohexanecarboxylic acid {(1R)-2-[4-(2,3-dihydro-benzo[1,4]dioxin-5-yl)-piperazin-1-yl]-1-pyridin-4-ylmethyl-ethyl}-methyl-amide]: 167 to 170 °C; for `COc1ccccc1N1CCN(C[C@@H](Cc2cccnc2)NC(=O)C2CCCCC2)CC1` (as salt: maleate) [Example 4, (R)-Cyclohexanecarboxylic acid {2-[4-(2-methoxy-phenyl)-piperazin-1-yl]-1-pyridin-3-ylmethyl-ethyl}-amide]: 112 to 115 °C.
Compound `COc1ccccc1N1CCN(C[C@@H](Cc2ccncc2)NC(=O)C2CCCCC2)CC1` (as salt: maleate) [Example 9, (R)-Cyclohexanecarboxylic acid {2-[4-(2-methoxy-phenyl)-piperazin-1-yl]-1-pyridin-4-ylmethyl-ethyl}-amide] yielded a melting point of 145 to 147 °C.
Regarding `COc1ccccc1N1CCN(C[C@@H](Cc2cccnc2)NC(=O)C2CCCCC2)CC1` [Example 4, (R)-Cyclohexanecarboxylic acid {2-[4-(2-methoxy-phenyl)-piperazin-1-yl]-1-pyridin-3-ylmethyl-ethyl}-amide], the EC50 in series [1] came to 20.5 nM. Moreover, the IC50 in series [2] was 0.48 nM.
For `COc1ccccc1N1CCN(C[C@@H](Cc2cccnc2)NC(=O)C2(C)CCCCC2)CC1` [Example 5, (R)-1-Methyl-cyclohexanecarboxylic acid {2-[4-(2-methoxy-phenyl)-piperazin-1-yl]-1-pyridin-3-ylmethyl-ethyl}-amide], the IC50 stood at 0.88 nM in series [2] and 13.2 nM in series [3].
For `COc1ccccc1N1CCN(C[C@@H](Cc2ccncc2)NC(=O)C2CCCCC2)CC1` [Example 9, (R)-Cyclohexanecarboxylic acid {2-[4-(2-methoxy-phenyl)-piperazin-1-yl]-1-pyridin-4-ylmethyl-ethyl}-amide], in series [1], the EC50 is 141 nM. Besides, in series [2], the IC50 worked out at 0.56 nM.
With `COc1ccccc1N1CCN(C[C@@H](Cc2ccncc2)NC(=O)C2(C)CCCCC2)CC1` [Example 10, (R)-1-Methyl-cyclohexanecarboxylic acid {2-[4-(2-methoxy-phenyl)-piperazin-1-yl]-1-pyridin-4-ylmethyl-ethyl}-amide], the IC50 in series [2] stood at 0.72 nM; in series [3] it was 11.3 nM.
In the case of `COc1ccccc1N1CCN(C[C@@H](Cc2ccccn2)NC(=O)C2CCCCC2)CC1` [Example 14, (R)-Cyclohexanecarboxylic acid {2-[4-(2-methoxy-phenyl)-piperazin-1-yl]-1-pyridin-2-ylmethyl-ethyl}-amide], the EC50 in series [1] worked out at 53 nM. The IC50 in series [2] came out at 1.26 nM.
Turning to `COc1ccccc1N1CCN(C[C@@H](Cc2ccccn2)NC(=O)C2(C)CCCCC2)CC1` [Example 15, (R)-1-Methyl-cyclohexanecarboxylic acid {2-[4-(2-methoxy-phenyl)-piperazin-1-yl]-1-pyridin-2-ylmethyl-ethyl}-amide], the IC50 in series [2] was found to be 0.74 nM; in series [3], 4.5 nM.
Regarding `COc1ccccc1N1CCN(C[C@@H](Cc2ccccn2)N(C)C(=O)C2(C)CCCCC2)CC1` [Example 18, 1-Methyl-cyclohexanecarboxylic acid {(1R)-2-[4-(2-methoxy-phenyl)-piperazin-1-yl]-1-pyridin-2-ylmethyl-ethyl}-methyl-amide], the values for the IC50 in series [2] and in series [3] were 3 nM and 132 nM, respectively.
Take `CC1(C(=O)N[C@H](Cc2cccnc2)CN2CCN(c3cccc4c3OCCO4)CC2)CCCCC1` [Example 22, 1-Methyl-cyclohexanecarboxylic acid {(1R)-2-[4-(2,3-dihydro-benzo[1,4]dioxin-5-yl)-piperazin-1-yl]-1-pyridin-3-ylmethyl-ethyl}-amide]: the EC50 in series [1] came to 10.2 nM. The IC50 in series [2] was determined as 2.58 nM.
Take `CN(C(=O)C1CCCCC1)[C@H](Cc1cccnc1)CN1CCN(c2cccc3c2OCCO3)CC1` [Example 24, Cyclohexanecarboxylic acid {(1R)-2-[4-(2,3-dihydro-benzo[1,4]dioxin-5-yl)-piperazin-1-yl]-1-pyridin-3-ylmethyl-ethyl}-methyl-amide]: the IC50 came to 2.48 nM in series [2] and 77 nM in series [3].
As for `CN(C(=O)C1CCCCC1)[C@H](Cc1ccncc1)CN1CCN(c2cccc3c2OCCO3)CC1` [Example 25, Cyclohexanecarboxylic acid {(1R)-2-[4-(2,3-dihydro-benzo[1,4]dioxin-5-yl)-piperazin-1-yl]-1-pyridin-4-ylmethyl-ethyl}-methyl-amide], the IC50 worked out at 3.81 nM in series [2] and 115 nM in series [3].
